Reference: ChEMBL document CHEMBL1649488, “In vitro activities of echinocandins against Candida krusei determined by three methods: MIC and minimal fungicidal concentration measurements and time-kill studies” (2009)
Converted amounts (≈) assume the structure as drawn. Starred links: 1 amine or outer side, 2 acyl side, 3 side chain; linkers in the order of their positions; H or OH if unused. Positions of bridges follow the written chain, without caps; N, C: chain ends. Non-standard residues stand in square brackets, D forms with d. Residues, ends and D or L forms follow the SMILES beside them. *: point of attachment. hTyr(3S-OH,4S-OH,3'-OSO3H) = N[C@H](C(=O)O)[C@H](O)[C@@H](O)c1ccc(O)c(OS(=O)(=O)O)c1; Orn(4R-OH,5R-OH) = O=C([C@H](C[C@@H](O)[C@@H](O)N[*:3])N[*:1])[*:2]; Pro(3S-OH,4S-Me) = C[C@H]1CN[C@H](C(=O)O)[C@H]1O; X1 = CCCCCOc1ccc(-c2cc(-c3ccc(C(=O)*)cc3)no2)cc1; Gln(3R-OH) = NC(=O)C[C@@H](O)[C@H](N)C(=O)O; Hyp = O=C(O)[C@@H]1C[C@@H](O)CN1

Key:
Format in all cases: functional
[1] = system: Pichia kudriavzevii; experiment: Fungicidal activity against Candida krusei ATCC 6258 bloodstream forms after 48 hrs by M27-A3 microdilution method
[2] = system: Pichia kudriavzevii; experiment: Fungicidal activity against Candida krusei CK1 bloodstream forms after 24 hrs by time-kill analysis; details: CK1, 24 h
[3] = system: Pichia kudriavzevii; experiment: Antifungal activity against Candida krusei CK1 bloodstream forms after 24 hrs by time-kill analysis; details: CK1, 24 h
[4] = system: Pichia kudriavzevii; experiment: Antifungal activity against Candida krusei ATCC 6258 bloodstream forms assessed as minimum concentration producing >= 50% growth reduction after 48 hrs by M27-A3 microdilution method; details: ATCC 6258, 48 h
[5] = system: Pichia kudriavzevii; experiment: Antifungal activity against Candida krusei ATCC 6258 bloodstream forms assessed as time to achieve 50% fungal growth reduction at 1 mg/L by time-kill analysis
[6] = system: Pichia kudriavzevii; experiment: Antifungal activity against Candida krusei ATCC 6258 bloodstream forms assessed as time to achieve 99.9% fungal growth reduction at 1 mg/L by time-kill analysis
[7] = system: Pichia kudriavzevii; experiment: Antifungal activity against Candida krusei ATCC 6258 bloodstream forms assessed as time to achieve 90% fungal growth reduction at 0.25 mg/L by time-kill analysis
[8] = system: Pichia kudriavzevii; experiment: Antifungal activity against Candida krusei ATCC 6258 bloodstream forms assessed as time to achieve 99% fungal growth reduction at 4 mg/L by time-kill analysis
[9] = system: Pichia kudriavzevii; experiment: Antifungal activity against Candida krusei ATCC 6258 bloodstream forms assessed as time to achieve 90% fungal growth reduction at 1 mg/L by time-kill analysis
[10] = system: Pichia kudriavzevii; experiment: Antifungal activity against Candida krusei ATCC 6258 bloodstream forms after 24 hrs by time-kill analysis; details: ATCC 6258, 24 h
[11] = system: Pichia kudriavzevii; experiment: Fungicidal activity against Candida krusei ATCC 6258 bloodstream forms after 24 hrs by time-kill analysis; details: ATCC 6258, 24 h
[12] = system: Pichia kudriavzevii; experiment: Antifungal activity against Candida krusei ATCC 6258 bloodstream forms assessed as minimum concentration producing >= 50% growth reduction after 24 hrs by M27-A3 microdilution method; details: ATCC 6258, 24 h
[13] = system: Pichia kudriavzevii; experiment: Antifungal activity against Candida krusei EU220 bloodstream forms after 24 hrs by time-kill analysis; details: EU220, 24 h
[14] = system: Pichia kudriavzevii; experiment: Fungicidal activity against Candida krusei EU220 bloodstream forms after 24 hrs by time-kill analysis; details: EU220, 24 h
[15] = system: Pichia kudriavzevii; experiment: Antifungal activity against Candida krusei CK2 bloodstream forms after 24 hrs by time-kill analysis; details: CK2, 24 h
[16] = system: Pichia kudriavzevii; experiment: Antifungal activity against Candida krusei CY118 bloodstream forms after 24 hrs by time-kill analysis; details: CY118, 24 h
[17] = system: Pichia kudriavzevii; experiment: Fungicidal activity against Candida krusei CK2 bloodstream forms after 24 hrs by time-kill analysis; details: CK2, 24 h
[18] = system: Pichia kudriavzevii; experiment: Antifungal activity against Candida krusei ATCC 6258 bloodstream forms assessed as time to achieve 99.9% fungal growth reduction at 0.25 mg/L by time-kill analysis
[19] = system: Pichia kudriavzevii; experiment: Antifungal activity against Candida krusei ATCC 6258 bloodstream forms assessed as minimum concentration producing >= 100% growth reduction after 48 hrs by M27-A3 microdilution method; details: ATCC 6258, 48 h
[20] = system: Pichia kudriavzevii; experiment: Antifungal activity against Candida krusei EU123 bloodstream forms after 24 hrs by time-kill analysis; details: EU123, 24 h
[21] = system: Pichia kudriavzevii; experiment: Antifungal activity against Candida krusei ATCC 6258 bloodstream forms assessed as time to achieve 90% fungal growth reduction at 4 mg/L by time-kill analysis
[22] = system: Pichia kudriavzevii; experiment: Antifungal activity against Candida krusei ATCC 6258 bloodstream forms assessed as time to achieve 99% fungal growth reduction at 0.25 mg/L by time-kill analysis
[23] = system: Pichia kudriavzevii; experiment: Fungicidal activity against Candida krusei CK6 bloodstream forms after 24 hrs by time-kill analysis; details: CK6, 24 h
[24] = system: Pichia kudriavzevii; experiment: Antifungal activity against Candida krusei ATCC 6258 bloodstream forms assessed as time to achieve 50% fungal growth reduction at 16 mg/L by time-kill analysis
[25] = system: Pichia kudriavzevii; experiment: Antifungal activity against Candida krusei ATCC 6258 bloodstream forms assessed as time to achieve 99% fungal growth reduction at 16 mg/L by time-kill analysis
[26] = system: Pichia kudriavzevii; experiment: Antifungal activity against Candida krusei CK6 bloodstream forms after 24 hrs by time-kill analysis; details: CK6, 24 h
[27] = system: Pichia kudriavzevii; experiment: Antifungal activity against Candida krusei ATCC 6258 bloodstream forms assessed as time to achieve 99% fungal growth reduction at 1 mg/L by time-kill analysis
[28] = system: Pichia kudriavzevii; experiment: Antifungal activity against Candida krusei ATCC 6258 bloodstream forms assessed as time to achieve 99.9% fungal growth reduction at 16 mg/L by time-kill analysis
[29] = system: Pichia kudriavzevii; experiment: Antifungal activity against Candida krusei ATCC 6258 bloodstream forms assessed as time to achieve 50% fungal growth reduction at 0.25 mg/L by time-kill analysis
[30] = system: Pichia kudriavzevii; experiment: Antifungal activity against Candida krusei ATCC 6258 bloodstream forms assessed as time to achieve 99.9% fungal growth reduction at 4 mg/L by time-kill analysis
[31] = system: Pichia kudriavzevii; experiment: Fungicidal activity against Candida krusei EU123 bloodstream forms after 24 hrs by time-kill analysis; details: EU123, 24 h
[32] = system: Pichia kudriavzevii; experiment: Antifungal activity against Candida krusei ATCC 6258 bloodstream forms assessed as minimum concentration producing >= 100% growth reduction after 24 hrs by M27-A3 microdilution method; details: ATCC 6258, 24 h
[33] = system: Pichia kudriavzevii; experiment: Antifungal activity against Candida krusei CK18 bloodstream forms after 24 hrs by time-kill analysis; details: CK18, 24 h
[34] = system: Pichia kudriavzevii; experiment: Antifungal activity against Candida krusei ATCC 6258 bloodstream forms assessed as time to achieve 90% fungal growth reduction at 16 mg/L by time-kill analysis
[35] = system: Pichia kudriavzevii; experiment: Fungicidal activity against Candida krusei CK18 bloodstream forms after 24 hrs by time-kill analysis; details: CK18, 24 h
[36] = system: Pichia kudriavzevii; experiment: Fungicidal activity against Candida krusei CY118 bloodstream forms after 24 hrs by time-kill analysis; details: CY118, 24 h
[37] = system: Pichia kudriavzevii; experiment: Antifungal activity against Candida krusei ATCC 6258 bloodstream forms assessed as time to achieve 50% fungal growth reduction at 4 mg/L by time-kill analysis

## CCCCCOc1ccc(-c2cc(-c3ccc(C(=O)N[C@H]4C[C@@H](O)[C@@H](O)NC(=O)[C@@H]5[C@@H](O)[C@@H](C)CN5C(=O)[C@H]([C@H](O)CC(N)=O)NC(=O)[C@H]([C@H](O)[C@@H](O)c5ccc(O)c(OS(=O)(=O)O)c5)NC(=O)[C@@H]5C[C@@H](O)CN5C(=O)[C@H]([C@@H](C)O)NC4=O)cc3)no2)cc1 [MICAFUNGIN] (X1-[Orn(4R-OH,5R-OH)]T[Hyp][hTyr(3S-OH,4S-OH,3'-OSO3H)][Gln(3R-OH)][Pro(3S-OH,4S-Me)]; lactam 1-C)
[1]
  MFC50: 0.5 µg/mL (≈ 0.394 µM)
  MFC90: 0.5 µg/mL (≈ 0.394 µM)
[1]; Pichia kudriavzevii, ATCC 6258, 48 h
  MFC: 0.25 µg/mL (≈ 0.197 µM)
[2]
  MFC: 0.5 µg/mL (≈ 0.394 µM)
[3]
  MIC: 0.25 µg/mL (≈ 0.197 µM)
[4]
  MIC50: 0.5 µg/mL (≈ 0.394 µM)
  MIC90: 0.5 µg/mL (≈ 0.394 µM)
[5]
  Time: 3.1 h
[6]
  Time: 30.7 h
[7]
  Time: 10.3 h
[8]
  Time: 21.25 h
[9]
  Time: 10.2 h
[10]
  MIC: 0.12 µg/mL (≈ 0.0945 µM)
[11]
  MFC: 0.25 µg/mL (≈ 0.197 µM)
[12]
  MIC50: 0.25 µg/mL (≈ 0.197 µM)
  MIC90: 0.5 µg/mL (≈ 0.394 µM)
[13]
  MIC: 0.25 µg/mL (≈ 0.197 µM)
[14]
  MFC: 0.25 µg/mL (≈ 0.197 µM)
[15]
  MIC: 0.5 µg/mL (≈ 0.394 µM)
[16]
  MIC: 1 µg/mL (≈ 0.787 µM)
[17]
  MFC: 0.5 µg/mL (≈ 0.394 µM)
[18]
  Time: 31 h
[19]
  MIC50: 0.5 µg/mL (≈ 0.394 µM)
  MIC90: 0.5 µg/mL (≈ 0.394 µM)
[20]
  MIC: 0.12 µg/mL (≈ 0.0945 µM)
[21]
  Time: 10.63 h
[22]
  Time: 20.6 h
[23]
  MFC: 0.5 µg/mL (≈ 0.394 µM)
[24]
  Time: 2.6 h
[25]
  Time: 17.28 h
[26]
  MIC: 0.5 µg/mL (≈ 0.394 µM)
[27]
  Time: 20.5 h
[28]
  Time: 25.91 h
[29]
  Time: 3.1 h
[30]
  Time: 31.88 h
[31]
  MFC: 0.5 µg/mL (≈ 0.394 µM)
[32]
  MIC50: 0.5 µg/mL (≈ 0.394 µM)
  MIC90: 0.5 µg/mL (≈ 0.394 µM)
[33]
  MIC: 0.25 µg/mL (≈ 0.197 µM)
[34]
  Time: 8.64 h
[35]
  MFC: 0.5 µg/mL (≈ 0.394 µM)
[36]
  MFC: 16 µg/mL (≈ 12.6 µM)
[37]
  Time: 3.2 h
